From article PMC2788921 (Biochemistry, 2009)

Assays:
benzaldehyde lyase (BAL) = benzaldehyde lyase (BAL) (Pseudomonas fluorescens, UniProt P51853); assay: CD titration of purified BAL; format: binding
[1] = biological target: benzoylformate decarboxylase (BFDC) (Pseudomonas putida, UniProt P20906); assay: stopped-flow PDA transient kinetics; format: binding
Chain of benzoylformate decarboxylase (BFDC) (P20906 whole entry): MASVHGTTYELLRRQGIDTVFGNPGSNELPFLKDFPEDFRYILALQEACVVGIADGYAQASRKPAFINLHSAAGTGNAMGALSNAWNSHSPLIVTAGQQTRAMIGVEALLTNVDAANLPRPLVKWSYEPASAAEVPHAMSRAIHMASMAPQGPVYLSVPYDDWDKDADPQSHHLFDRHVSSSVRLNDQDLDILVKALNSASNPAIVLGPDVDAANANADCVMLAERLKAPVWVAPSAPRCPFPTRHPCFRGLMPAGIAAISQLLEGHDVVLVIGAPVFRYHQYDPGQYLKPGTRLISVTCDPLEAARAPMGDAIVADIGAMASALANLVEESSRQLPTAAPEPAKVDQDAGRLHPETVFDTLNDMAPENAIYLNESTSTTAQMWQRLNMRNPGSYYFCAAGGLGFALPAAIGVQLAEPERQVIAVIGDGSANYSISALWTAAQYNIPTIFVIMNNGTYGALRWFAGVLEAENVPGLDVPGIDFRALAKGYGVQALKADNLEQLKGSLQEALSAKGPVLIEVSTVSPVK

Chain of benzaldehyde lyase (BAL) (P51853 whole entry): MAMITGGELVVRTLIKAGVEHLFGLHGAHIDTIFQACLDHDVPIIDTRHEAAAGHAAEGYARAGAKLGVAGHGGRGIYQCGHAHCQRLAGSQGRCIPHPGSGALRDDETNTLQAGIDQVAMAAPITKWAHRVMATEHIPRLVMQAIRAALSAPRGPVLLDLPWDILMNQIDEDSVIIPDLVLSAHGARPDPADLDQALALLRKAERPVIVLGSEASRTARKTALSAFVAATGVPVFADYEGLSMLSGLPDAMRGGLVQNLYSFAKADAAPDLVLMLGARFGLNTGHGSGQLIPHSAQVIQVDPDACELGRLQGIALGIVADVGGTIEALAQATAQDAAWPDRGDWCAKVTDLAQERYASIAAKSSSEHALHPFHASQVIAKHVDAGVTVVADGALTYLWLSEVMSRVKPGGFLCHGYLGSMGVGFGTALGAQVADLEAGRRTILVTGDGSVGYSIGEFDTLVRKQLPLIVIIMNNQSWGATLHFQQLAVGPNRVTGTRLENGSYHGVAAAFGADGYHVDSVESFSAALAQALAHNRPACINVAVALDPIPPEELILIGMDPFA

Kd [1] [µM] | SMILES | Kd (benzaldehyde lyase (BAL)) [µM]
– | O=C/C=C/c1cccnc1 [PAA, (E)-3-(pyridin-3-yl)acrylaldehyde] | 21.4 ± 1.98
340 | O=C(O)C(=O)/C=C/c1cccnc1 [3-PKB, (E)-2-oxo-4-(pyridin-3-yl)but-3-enoic acid] | –
